A short description of data set [1]: Dose-response metrics in immortalized, non-tumorigenic cells. It counts as cell-based. The following applies: African green monkey, Vero cells (immortalized, non-tumorigenic); read-out: LC50 (the source's name). The procedure:
(§1) To determine potential cytostatic or cytocidal effects of BRG prodrugs in immortalized, non-tumorigenic cells, Vero, HEK-293t, LP9, and HPM3 cells were exposed to 4SP65 while only Vero cells also were treated with 1LP65. […] Comparisons across other dose-response metrics could not be made because such levels of effects were not induced in NHMECs exposed to 4SP65. […] Since cytostatic and cytolytic effects at the TGI and LC50/99 levels were induced in Vero cells exposed to 1LP65 but not in NHMECs, there is a significant difference in the effects of 1LP65 in Vero cells compared to NHMECs, but p values based upon t-test evaluations cannot be defined due to lack of numerical data.

In data set [2] the test system is NCI-H460 NSCLC cells. It counts as cell-based.
Method: (§4) Trypan Blue exclusion was applied as a complementary confirmation probe for cell death.
(§5) Statistical comparisons of differences in individual dose-response metrics between individual/paired drug treatments and various cell lines were conducted using the Student's t-test, with P-values <0.05 considered significant.
(§6) Relative cell growth inhibition values for differing levels each drug alone and in combination were input into SynergyFinder to generated dose-response curves for each drug alone, to produce a dose-response matrix, to visualize the distribution of areas of differing degrees of synergism in a 2-dimension heatmap and 3-dimension volcano plot, and to calculate average and maximum synergy scores in selected human cancer cell lines. […] Synergy scores <10 means that the interaction between two drugs was likely to be antagonistic; scores from −10 to 10 means the interaction between two drugs was likely to be additive; and scores >10 means the interaction between two drugs was likely to be synergistic.
In data set [3] the test system is HPM3 cells. As to the kind of experiment: Dose-response metrics in immortalized, non-tumorigenic cells. It counts as cell-based. Here is the method: as §1
The subject of data set [4] is SK-OV-3. Put plainly: Trypan Blue cell count after 48 hour exposure. The following applies: read-out: Average Growth Inhibitory Dose 50% [EC50], Ovarian CA (SK-OV-3). It counts as cell-based, human. Here is the method: (§2) To evaluate the anticancer activity of 4-arm star polyethylene glycol conjugated to WR-1065 (4SP65), the anticancer efficacy of 4SP65 was determined in some of the same cell lines used by NIH/NCI, and the methodology used was the same as is used by the NCI to evaluate chemotherapeutic agents currently in use (O'Connor et al., “Characterization of the p53 Tumor Suppressor Pathway in Cell Lines of the National Cancer Institute Anticancer Drug Screen and Correlations With the Growth-Inhibitory Potency of 123 Anticancer Agents,” Cancer Res. 57 (19): 4285-300 (1997), which is hereby incorporated by reference in its entirety). Testing of 6 cancer types was completed: (i) breast cancer (MDA-MB-231 cells), (ii) lung cancer (A549), (iii) prostate cancer cell line (LNCaP), (iv) myelogenous leukemia (HL60 cells), (v) ovarian cancer (SK-OV-3), and (vi) prostate cancer (DU-145).
(§3) Each cell line was grown in medium as recommended by the ATCC or as presented in the literature for that cell line. All cells were cultured in a water jacket incubator at 36-37° C. and in the presence of 5% CO2. To ensure optimal growth and viability, all cells were grown on plates coated with FNC (In Vitrogen). Cells were refed with growth medium twice weekly until they had reached 60 to 70% confluence. At this point, the medium was replaced with growth medium supplemented with 4SP65 at doses ranging from 0 to up to 300 micromolar. Cells were allowed to grow in the presence of this supplemented medium for 48 hours, and then they were removed by trypsinization, stained with Trypan Blue and counted in a hemocytometer. Three to four replicates for each dose group per experiment were performed. The percentage cell death was determined by comparing the average number of surviving cells exposed to 4SP65 versus the average number of surviving sham exposed cells.

Data set [5] deals with A549. Put plainly: Trypan Blue cell count after 48 hour exposure. It counts as cell-based, human. The following applies: read-out: Average Growth Inhibitory Dose 50% [EC50], Lung CA (A549). The procedure: as §2, §3
The subject of data set [6] is DU-145. Put plainly: Trypan Blue cell count after 48 hour exposure. It counts as cell-based, human. The following applies: read-out: Average Growth Inhibitory Dose 50% [EC50], Prostate CA (DU-145). Here is the method: as §2, §3
Data set [7] concerns MDA-MB-231 cells. Put plainly: Trypan Blue cell count after 48 hour exposure. The conditions noted are these: read-out: Average Growth Inhibitory Dose 50% [EC50], Breast CA (MDA-MB-231). It counts as cell-based, human. The procedure:
as §2, §3

In data set [8] the test system is H1975 cells.
Method: as §4, §5, §6
Where [9] appears, read: NCI-H460, each drug alone, 48 h.

Results on two molecules are retold here after US20250144050A1, “AMINOTHIOL-CONJUGATES, COMPOSITIONS, AND METHODS OF USE THEREOF” (THE BURLINGTON HC RESEARCH GROUP, INC., priority 2021, published 2025).

On to `COCCOCCOCCOCCOCCOCCSSCCNCCCN` [1LP65, m-PEG6-S-S-WR1065], for which the CC50 in data set [1] is 129 ± 3.4 µM.
For the molecule 4-star PEG-S-S-WR1065 [4SP65], the CC50 in data set [2] is 17.6 ± 0.5 µM; in data set [8] it was 7.2 ± 1.4 µM. Also, the “Fold increase in efficacy at GI50” value in data set [2] (NCI-H460, drug alone vs in 4SP65-cisplatin combination) was determined as 36 fold. Moreover, the GI50 is 12.3 ± 1.1 µM in data set [2] (setting [9]); approximately 10 µM in data set [3]; 3.2 ± 1.1 µM in data set [8] (H1975, each drug alone, 48 h). The 50% inhibitory concentration (IC50) in data set [2] (setting [9]) is 13.3 ± 1 µM; in data set [8] (H1975, each drug alone, 48 h), 3.5 ± 0.9 µM. Moreover, the LC99 worked out at 18.2 ± 0.4 µM in data set [2] (setting [9]) and 8.9 ± 1.6 µM in data set [8] (H1975, each drug alone, 48 h). The TGI in data set [2] (setting [9]) came to 16.9 ± 0.6 µM; in data set [8] (H1975, each drug alone, 48 h), 5.5 ± 1.4 µM. The EC50 in data set [4] is 5 µM; in data set [5], 15 µM; in data set [6], 6.7 µM; in data set [7], 4.5 µM.
